Values of other authors, collected in patent publication US20250089716A1, “IMMEDIATE-RELEASE PESTICIDE FORMULATION” (priority 2022, published 2025).

Details: extender component; unit not given

Water solubility [g/100 ml] | Compound
100 | NC(N)=O [Urea]
235 | OC[C@@H](O)[C@@H](O)[C@H](O)[C@@H](O)CO [Sorbitol]
133 | O=C[C@H](O)[C@@H](O)[C@H](O)CO [Xylose]

More lines, now with the values behind:

Compound | Water solubility [g/100 ml]
[Cl-].[Cl-].[Zn+2] [Zinc chloride] | 395
[Cl-].[K+] [Potassium chloride] | 34
Flactose | 375
OC[C@H]1O[C@@](CO)(O[C@H]2O[C@H](CO)[C@@H](O)[C@H](O)[C@H]2O)[C@@H](O)[C@@H]1O [Sucrose] | 202
